Assay results taken from ChEMBL document CHEMBL4052678, “Urotensin core mimics that modulate the biological activity of urotensin-II related peptide but not urotensin-II” (Bioorg Med Chem Lett, 2017).
pEC50: −log10 of the molar value. Calls of active or inactive are those of the source. The rule behind the calls is not given here. Starred links: 1 amine or outer side, 2 acyl side, 3 side chain; linkers in the order of their positions; H or OH if unused. Non-standard residues stand in square brackets, D forms with d. Residues, ends and D or L forms follow the SMILES beside them. X1 = O=C(Cn1cc(CN[*:1])nn1)[*:2]

Assays:
Assay type in all cases: functional
Aorta [1] = assay: Induction of contraction in Sprague-Dawley rat aortic rings at 30 umol relative to KCl-induced contraction
Aorta [2] = assay: Inhibition of urotensin II-related peptide-induced contraction in Sprague-Dawley rat aortic rings assessed as Emax for urotensin II-related peptide at 30 umol relative to KCl-induced contraction (reference value: 113 +/- 2%)
Aorta [3] = assay: Inhibition of human urotensin II-induced contraction in Sprague-Dawley rat aortic rings assessed as Emax for urotensin II at 30 umol relative to KCl-induced contraction (reference value: 104 +/- 4%)
Aorta [4] = assay: Inhibition of human urotensin II-induced contraction in Sprague-Dawley rat aortic rings assessed as Emax for urotensin II relative to KCl-induced contraction (reference value: 8.59 +/- 0.08)
Aorta [5] = assay: Inhibition of urotensin II-related peptide-induced contraction in Sprague-Dawley rat aortic rings assessed as Emax for urotensin II-related peptide relative to KCl-induced contraction (reference value: 8.07 +/- 0.03)
Aorta [6] = assay: Induction of contraction in Sprague-Dawley rat aortic rings at 25 umol relative to KCl-induced contraction

Row | pEC50 (Aorta [4]) | pEC50 (Aorta [5]) | SMILES | Activity (Aorta [1]) | Emax (Aorta [2]) [%] | Emax (Aorta [3]) [%] | Activity (Aorta [6])
1 | 8.87 | 8.52 | NCCCC[C@@H]1NC(=O)[C@H](Cc2c[nH]c3ccccc23)NC(=O)Cn2cc(nn2)CNC(=O)[C@H](Cc2ccc(O)cc2)NC1=O | Active | 90 | 97 | 
2 | 8.37 | 9.30 | NCCCC[C@@H]1NC(=O)[C@H](Cc2c[nH]c3ccccc23)NC(=O)[C@H](Cc2ccccc2)NC(=O)Cn2cc(nn2)CNC(=O)[C@H](Cc2ccc(O)cc2)NC1=O (cyclo(FWKY[X1])) |  | 54 | 96 | Active
